Earlier results in patent US20150269865A1, “SYSTEMS AND METHODS FOR PERSONALIZED NUTRIMERS” (priority 2014, published 2015).
Values belong to the compound of their own block, whether it stands above or below them.

Tests used:
[1] = PMID 9630738
[2] = PMID 9630738; compared with folic acid
[3] = orally administered, human absorption kinetic studies, PMID 3257913
[4] = in vivo
MTHFR = MTHFR (Homo sapiens, UniProt P42898); conditions: cofactor of MTHFR or needs to be metabolized into Methyl folate
MTHFR, sequence (P42898 whole entry): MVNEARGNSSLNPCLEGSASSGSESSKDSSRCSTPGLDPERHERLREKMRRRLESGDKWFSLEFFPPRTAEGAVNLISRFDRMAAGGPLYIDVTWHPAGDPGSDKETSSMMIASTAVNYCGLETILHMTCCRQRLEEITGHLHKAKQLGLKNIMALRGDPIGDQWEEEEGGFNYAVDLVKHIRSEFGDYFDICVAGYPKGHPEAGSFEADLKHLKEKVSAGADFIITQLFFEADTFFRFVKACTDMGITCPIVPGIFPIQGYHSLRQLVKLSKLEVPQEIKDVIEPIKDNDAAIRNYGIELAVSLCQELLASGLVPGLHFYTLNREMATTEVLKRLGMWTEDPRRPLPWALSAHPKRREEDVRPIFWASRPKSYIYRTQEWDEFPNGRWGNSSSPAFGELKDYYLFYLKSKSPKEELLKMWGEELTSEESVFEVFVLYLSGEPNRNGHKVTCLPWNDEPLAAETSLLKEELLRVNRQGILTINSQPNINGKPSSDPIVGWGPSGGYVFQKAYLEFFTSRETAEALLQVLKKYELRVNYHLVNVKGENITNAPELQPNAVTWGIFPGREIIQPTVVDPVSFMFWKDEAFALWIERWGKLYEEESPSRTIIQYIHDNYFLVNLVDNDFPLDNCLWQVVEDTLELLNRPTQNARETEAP

[5] = PMID 21735411; compared with Ergocalciferol (vitamin D2)
[6] = PMID23482308
[7] = PMID23482308; remark: listed apart in the source
[8] = human subject treated even for a few months; PMID 23751310
copper absorption = conditions: PMID 1726403
[9] = in vivo; remark: listed apart in the source
[10] = human, in vivo

- Stability upon exposure to heat compared with natural forms of folate in the diet [6]: FA is more stable
- Cofactor (MTHFR): Not a cofactor.
Compound: Nc1nc2ncc(CNc3ccc(C(=O)N[C@@H](CCC(=O)O)C(=O)O)cc3)nc2c(=O)[nH]1 [Folic acid (FA), Folic acid]
- Side effects: masking of vitamin B12 deficiency [7]: “does not mask

- effect on vitamin B12 and folate levels [8]: decrease of vitamin B12 and folate
Compound: CN(C)C(=N)N=C(N)N [metformin]

- effect on absorption of desipramine (Norpramin) [9]: interferes with the absorption
Compound: Vitamin E

- B12 intake above which absorbance declines with increased supplementation [10]: about 10 mcg
Compound: cobalamin [B12]

The next lines start with the compound.

Compound: Nc1nc(=O)c2c([nH]1)NCC(CNc1ccc(C(=O)N[C@@H](CCC(=O)O)C(=O)O)cc1)N2C=O (mixture of isomers) [Folinic acid]
- Stability: half-life in the body compared with folic acid [1]: longer half-life in
- Therapeutic effects [2]: more metabolically
- bioavailability [3]: 92%
- transport through the blood brain barrier into the central nervous system [4]: readily transported
- Cofactor (MTHFR): Not a cofactor.

Compound: C=C1CC[C@H](O)C/C1=C/C=C1\CCC[C@]2(C)[C@@H]([C@H](C)CCCC(C)C)CC[C@@H]12 [Cholecalciferol]
- effect on mortality [5]: decrease mortality

Compound: [Zn] [zinc]
- effect on copper absorption (copper absorption): inhibits copper absorption
